Data published in patent US20260345605A1, “THERAPEUTIC AGENTS FOR HEART FAILURE” (Ottawa Hospital Research Institute, priority 2023, published 2026).

What was measured:
[1] = tested on: aurora kinase B; test: pAurkB S727 immunofluorescence and remodeling in NRVM; format: cell-based, neonatal rat
Procedure: Immunofluorescence was performed to validate and assess the effect of aurora B kinase inhibitor on cardiomyocyte remodeling. NRVMs were plated at a density of 2.5×10^4 cells onto 25 mm diameter collagen coated coverslip. Primary cardiomyocytes were incubated with control serum-free medium (Ctrl, SF medium), hCT1 (0.5 nM), PE (100 μM), AZD1152-HQPA (1.5 μM) and assessed for aurora kinase B activation using pAurkB s727 antibody staining. The cells were treated with a combination of PE and AZD1152 HQPA where the cells were stimulated with the drug for 4 hours following the PE treatment for 24 hours.
Post treatment, the cells were washed, fixed, and were subjected to sequential staining of primary antibodies a Actinin and phospho-AurkB (S727). The images were acquired using the Zeiss AxioVision SE64 Imaging software and analyzed using the ImageJ2 software. Immunofluorescence was used to detect α-actinin, pAurkb S727, and nuclei were stained with DAPI.

[2] = tested on: Aurora B; details: role: inhibitor; cited from earlier work
[3] = tested on: cardiomyocytes; test: Overall observation on remodeling of treated cardiomyocytes; format: cell-based
[4] = tested on: NT Pro-BNP (iCell Cardiomyocyte); test: NT Pro-BNP ELISA in iCell Cardiomyocyte supernatants; format: cell-based, human; details: 24 hour; for Mean NT Pro-BNP levels: iCell Cardiomyocyte, UT 2407.521
Procedure: (§1) A secondary screening was performed with 10 drugs identified from primary screening for their ability to induce physiological remodeling using morphometric analysis and measuring the levels of B-type natriuretic peptide (BNP), as a surrogate indicator of the hypertrophic response using ELISA. The compounds were selected based on the highly enriched targets identified in the drug set enrichment analysis with a high Z score. Cryopreserved iPS cell-derived cardiomyocytes (“iCell Cardiomyocytes”) obtained from Cellular Dynamics International (CDI, Madison, WI) were used as a cell model to perform the screening.
Pro-NT BNP levels in the culture media were measured following the 24 hour treatment using the Human NT Pro-BNP DuoSet ELISA kit (R&D Systems, Minnesota USA) as per the manufacturer's instruction. […] The plates were read on BMG BioTek Molecular Devices SpectraMax Microplate Reader at 450 nm to obtain the optical density followed by reading at 540 nm for wavelength correction.
Protein levels were identified by plotting a 4 parametric logistic regression curve using the standards provided with the kit.

[5] = tested on: iPS cell-derived cardiomyocytes (iCell Cardiomyocytes); test: Secondary screening: morphometric analysis of iCell Cardiomyocytes; format: cell-based, human; details: for Mean Cardiomyocyte Length: iCell Cardiomyocyte, UT 213.01323
Source text: A library of 800 small molecule compounds that can stimulate favorable cardiac adaptation in primary neonatal rat ventricular myocytes (NRVM) was screened. To identify the beneficial modifiers of hypertrophy, the Cellomics Arrayscan High Throughput Screening platform was employed to quantify morphometric features such as, for example, length, width, and length to width ratio from images acquired using a 10× lens for DAPI-labeled nuclei and CY3 labeled α actinin stained cardiomyocytes in a 96 well format. The lead compound was also screened in iPSC derived cardiomyocytes as a part of secondary screening as it offers a physiologically relevant human cell-based model.
as §1
The cells were plated at a density of 2.5×10^4 cells onto 25 mm diameter fibronectin coated glass coverslips in plating media for 48 hours. The media was replaced with Supplemented William's E (SWE) medium (SWE) media supplemented with cocktail containing penicillin-streptomycin, ITS+(insulin, transferrin, selenium complex, BSA, and linoleic acid), GlutaMAX™, and HEPES (Primary Hepatocyte Maintenance Supplements-GIBCO) for 48 hours. The cells were treated with controls (CT1-40 ng/mL, PE-100 uM) and drugs (AZD1152-HQPA, LY283519) at varying concentrations (2.5, 1, 0.5, and 0.25 uM) for 24 hours.
Post treatments, the cells were washed, fixed and treated with primary antibody, secondary antibody similar to the protocol of Example 3. The effect on the morphometric parameters was assessed using Cellomics Arrayscan Vti HCS reader. The Image acquisition was performed using the Zeiss AxioVision SE64 Imaging software and analyzed using the ImageJ2 software.
iCell cardiomyocytes were seeded at a density of 10,000 cells per well in a 96 well plate format. The cells were maintained as in Example 3 and were treated with controls (hCT1, PE) and drugs (AZD1152-HQPA, LY283519) at four different concentrations for 24 hours. The cells were then fixed and stained with a Actinin for cardiomyocytes followed by nuclear staining with DAPI. The plates were analyzed in Cellomics Arrayscan Vti HCS reader to assess morphometric changes following treatment.

[6] = tested on: phospho-Histone 3 (Ser10); test: phospho-Histone 3 (pH3 Ser10) staining in NRVM; format: cell-based, neonatal rat
Procedure: A one-way ANOVA test performed to assess statistical significance across treatment groups.
The effect of AZD1152-HQPA on cardiac remodeling was further validated using the phospho-Histone 3 (pH3 Ser10) staining which is the downstream target of aurora kinase B. The NRVMs were plated at a density of 2.5×10^4 cells onto 25 mm diameter collagen coated coverslip. The cells were treated with controls (hCT1, PE), AZD1152-HQPA followed by a combination of PE and AZD1152-HQPA.
Post treatment, the cells were washed, fixed, and were subjected to sequential staining of primary antibodies a Actinin and phospho-Histone 3 (Ser10). The images were acquired using the Zeiss AxioVision SE64 Imaging software and analyzed using the ImageJ software. […] The data are represented as Mean±Standard deviation.

[7] = cited from earlier work
[8] = tested on: DOX-induced cardiomyocyte apoptosis and ventricular dysfunction; details: cited from earlier work
[9] = tested on: streptozotocin (STZ)-induced cardiac dysfunction; details: animal model of diabetic cardiomyopathy; cited from earlier work
[10] = tested on: CDK4/6; details: role: inhibitor; cited from earlier work
[11] = tested on: CDK2; details: role: inhibitor; cited from earlier work

CCN(CCO)CCCOc1ccc2c(Nc3cc(CC(=O)Nc4cccc(F)c4)[nH]n3)ncnc2c1 [AZD1152-HQPA, AZD1152-hydroxyquinazoline pyrazol anilide]
aurora kinase b activation ([1]; AZD1152-HQPA 1.5 μM): inhibited aurora kinase b activation | pathological effect of PE ([1]; drug for 4 hours following PE treatment for 24 hours): able to reverse the pathological effect of PE | Aurora B inhibition [2]: strong and selective inhibitor of Aurora B | cardiomyocyte remodeling [3]: adaptive and compensatory remodeling that resembles a physiologic growth response, adding sarcomeres in series | Mean NT Pro-BNP levels ([4]; drug 0.25 μm): 2100.945 pg/mL | Mean NT Pro-BNP levels ([4]; drug 0.5 μm): 1588.366 pg/mL | Mean NT Pro-BNP levels ([4]; drug 1 μm): 2023.151 pg/mL | Mean NT Pro-BNP levels ([4]; drug 2.5 μm): 2085.823 pg/mL | Pro-NT BNP levels compared to UT and CT1 treated cells ([4]; iCell cardiomyocytes): comparable and/or reduced BNP levels | Mean Cardiomyocyte Length ([5]; drug 0.25 μm, 24 hours): 236 µm | Mean Cardiomyocyte Length ([5]; drug 0.5 μm, 24 hours): 232 µm | Mean Cardiomyocyte Length ([5]; drug 1 μm, 24 hours): 218 µm | Mean Cardiomyocyte Length ([5]; drug 2.5 μm, 24 hours): 223 µm | Eccentric cardiac remodeling ([5]; iCell cardiomyocyte, 1 uM, FIG. 4A): Eccentric cardiac remodeling was observed | cardiomyocyte length compared with CT1 treated cells ([5]; iCell cardiomyocytes on coverslips, 24 hours): comparable cardiomyocyte length | length in iCell cardiomyocyte compared to hCT1 ([5]; iCell cardiomyocytes, 96 well, four concentrations, 24 hours): increased length in iCell cardiomyocyte comparable to length induced by hCT1 | pH3 activity ([6]; AZD1152-HQPA alone): reduced pH3 activity | pH3 activity ([6]; AZD1152-HQPA in combination with PE treatment): reduced pH3 activity | conversion to the active AZD1152-HQPA in plasma [7]: converted rapidly

COc1cccc2c1C(=O)c1c(O)c3c(c(O)c1C2=O)C[C@@](O)(C(=O)CO)C[C@@H]3O[C@H]1C[C@H](N)[C@H](O)[C@H](C)O1 [DOX, doxorubicin]
DOX-induced effect on heart ([8]; CDK2 activation as mechanism): cardiomyocyte apoptosis and ventricular dysfunction

CC(=O)c1c(C)c2cnc(Nc3ccc(N4CCNCC4)cn3)nc2n(C2CCCC2)c1=O [Palbociclib]
effect on streptozotocin (STZ)-induced cardiac dysfunction [9]: inhibiting streptozotocin (STZ)-induced cardiac dysfunction by attenuating maladaptive cardiac remodeling | CDK4/6 inhibition [10]: CDK4/6 inhibitor

CC[C@H](CO)Nc1nc(NCc2ccccc2)c2ncn(C(C)C)c2n1 [Roscovitine]
cardioprotective effect against DOX ([8]; DOX-associated contractile dysfunction and ventricular remodeling): attenuating myocytes from DOX-associated contractile dysfunction and ventricular remodeling | CDK2 inhibition [11]: CDK2 inhibitor
